Test results from patent publication US12692259B2, “Morpholine-containing and piperazine-containing CXCR4 modulators and uses related thereto” (Emory University, priority 2021, dated 2026).

Tests used:
[1] = PAMPA assay; assay type: in vitro ADME; details: pH 7.4
Procedure: PAMPA assay was performed by BioAssay Systems Services or Bristol Myers Squibb. The method used by BioAssay Systems Services is described below.
Stock solutions in DMSO for all compounds (10 mM) were thawed. The assay was performed in duplicate by following the PAMPA-096 procedure for sample plating. 4% Lecithin in dodecane solution was prepared by resuspending the dried lecithin with 750 μL dodecane. PBS pH 7.4 was used as the diluent. Two sets of plates and equilibrium solutions were incubated for 4 hours at room temperature. Acceptor and equilibrium solutions were analyzed in a UV plate. OD280 nm was used for High Permeability Control (chloramphenicol). OD270 nm was used for Medium Permeability Control (diclofenac) and Low Permeability Control (theophylline). OD254 nm was used for the test compounds.
Data analysis was performed by using the peak absorbance for each respective test compound and Permeability Control to determine the Permeability Rate (Pe) via the following equation: […]
where ODA is the absorbance of Acceptor Solution, ODE is the absorbance of the Equilibrium Standard, and C is determined by the equation below: […]
where Donor Volume (VD) is 0.2 cm^3, Acceptor Volume (VA) is 0.3 cm^3, and Membrane Area (Area) is 0.24 cm^2.

[2] = Metabolic stability assay, human liver microsomes (HLM); assay type: in vitro ADME; details: 10 min
Text: Controls were processed and analyzed like the test compounds.

[3] = in vitro; details: mouse, 10 min, 3 µM, pH 7.4
Procedure: Metabolic stability assay was performed at Emory University's Department of Chemistry or by Bristol Myers Squibb. The method used by Emory University's Department of Chemistry is described below.
Each method was developed in the presence of an internal standard (ISTD) d5-7-ethoxy coumarin. The column temperature was maintained at 40° C. for most of the samples otherwise noted. The detection was operated in the Agilent JetStream electrospray positive ionization using multiple reaction monitoring mode (MRM).
Other MS conditions were as follows: dwell time 100 ms; gas flow 10 L/min; nebulizer pressure 45 psi; delta EMV 200 V; fragmentor voltage and collision energy for individual compounds vary.
Test compounds were dissolved in 100% DMSO or 100% MeOH to make 10 mM stock solutions. Verapamil (Sigma Aldrich) aided as a positive control and was dissolved in 100% DMSO to make 10 mM stock solutions. The 10 mM stock solution of test and control compounds were further diluted in potassium phosphate buffer (100 mM, pH 7.4) to 500 μM to ensure the organic solvent content was <0.2%. Human liver microsomes (HLMs) were purchased from Xenotech at 20 mg/mL. NADPH (Sigma Aldrich) 10 mM stocks were prepared in deionized water.
The HLM assay was prepared in a 1.5 mL Eppendorf tube with a final volume of 1100 μL for duplicate runs. Each reaction contained phosphate buffer (928.4 μL), liver microsomes (55 μL), and test compound resulting in a final concentration of 3 μM (6.6 μL of 500 μM). The reaction was initiated with 110 μL of 10 mM NADPH. […] Before centrifugation each of the aliquoted tubes were vortexed to make sure compounds were in the solution. The aliquots were centrifuged at 12,000 g for 5 min and the supernatant removed and placed in an LC-MS vial. Each time point was assessed using LC-MS and the area, based on the extracted ion, was integrated with respect to the ISTD. […] A no-NADPH negative control with test or control compound was performed in a single run (150 μL) at the longest time point. Controls were processed and analyzed like the test compounds. Each time point was run in duplicates followed by in-between blank washes to avoid the carryover and to equilibrate the column.
The MLM assay was performed using the same procedures as those described above for the HLM assay.

[4] = target: CXCR4 (Homo sapiens, UniProt P61073); assay: cAMP assay in CXCR4-CHO-Glo cells (GloSensor, forskolin + SDF-1α); assay type: cell-based; set-up: expressed in transfected cells
Chain of CXCR4 (P61073 whole entry): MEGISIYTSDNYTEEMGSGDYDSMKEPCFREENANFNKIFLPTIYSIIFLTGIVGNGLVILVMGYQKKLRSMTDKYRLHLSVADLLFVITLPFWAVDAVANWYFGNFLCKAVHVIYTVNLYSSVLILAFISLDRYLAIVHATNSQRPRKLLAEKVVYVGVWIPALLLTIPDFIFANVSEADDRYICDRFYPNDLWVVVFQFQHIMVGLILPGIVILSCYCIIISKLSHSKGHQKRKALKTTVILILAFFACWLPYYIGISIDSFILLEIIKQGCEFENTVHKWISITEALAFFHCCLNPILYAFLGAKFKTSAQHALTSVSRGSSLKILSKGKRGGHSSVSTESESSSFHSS
Text: Materials, reagents, and instrument—Advanced DMEM (Gibco), trypsin EDTA (0.05%, phenol red), L-glutamine, HBSS buffer with and without Ca^2+/Mg^2+ (Gibco), antibiotic-antimycotic (Gibco), hygromycin B, and geneticin selective antibiotic (G418 sulfate) were purchased from Invitrogen. Forskolin (Tocris), SDF-1α (R&D Systems), HEPES (Sigma Aldrich), FBS (Atlanta Biologicals), D-luciferin (Gold Biotechnology), sterile 60 mm tissue culture dishes, and 96-well sterile tissue culture plates were purchased from Corning.
The assay targeted CXCR4 expressed in CHO-gloSensor cells. It monitored GPCR activation based on forskolin-stimulated cAMP production in cells. The assay used a genetically encoded biosensor with its cAMP binding domain fused to luciferase. Binding of cAMP to the cAMP binding domain changed the conformation of the biosensor, leading to the activation of luciferase. The intensity of the luciferase signal (light output) resulted from the oxidation of D-luciferin to oxyluciferin is proportional to the amount of cAMP produced in the cells.
The assay was performed in triplicate using live cells in 96-well tissue culture plates. Cells were pre-incubated in the dark at room temperature for one hour in the presence of D-luciferin. Bioluminescence was quantified before and after the agonist/antagonist addition. Stock solution of forskolin and SDF-1a, was prepared in Locke-Luc buffer. Stock solutions of the test compounds were prepared in DMSO (10 mM); they were diluted by Locke's buffer for use in the assay.
CHO-Glo cells, a cell line stably expressing the GloSensor cAMP biosensor (Promega), were transfected with cDNA encoding human CXCR4 in Pires-AcGFP1 (Clontech) and a stable cell line was isolated (CXCR4-CHO-Glo cells). The CXCR4-CHO-Glo cells were grown to confluency on 60 mm tissue culture dishes. After trypsinization, the cells were plated on 96-well plates and incubated overnight. The next day, culture media in each well was aspirated and replaced with 100 μL Locke's buffer containing 4 mM D-luciferin, followed by incubation in the dark for one hour. Before the addition of agonist/antagonist, each plate was read five times at 2 min intervals to obtain basal bioluminescence values from each well. The average of these five pre-readings was used to normalize each well's response to account for differences in GloSensor expression and cell density. After five pre-readings, cAMP formation was initiated with the addition of 50 μL solution of test compound (TC) in Locke Luc buffer containing forskoline and SDF-1α. […] Luminescence was measured immediately after the addition of the antagonist solution. The measurements were taken every two minutes for 30 minutes in kinetics mode after antagonist addition. IC50 values were calculated from the 4-parameter logistic equation using Prism GraphPad.

| Structure (SMILES) | Papp at 4 h [1] [×10⁻⁶ cm/s] | Liver Microsomes % rem. @ 10 min. H [2] [%] | Liver Microsomes % rem. @ 10 min. M [3] [%] | IC50 [4] [nM] |
| --- | --- | --- | --- | --- |
| CN(C[C@H]1Cc2c(cccc2N2CC3CC2CO3)CN1)[C@H]1CCCc2cccnc21 (stereo in doubt) [EMU-325, (S)—N—(((R)-5-((1R,4R)-2-oxa-5-azabicyclo[2.2.1]heptan-5-yl)-1,2,3,4-tetrahydroisoquinolin-3-yl)methyl)-N-methyl-5,6,7,8-tetrahydroquinolin-8-amine] | 12.3 | – | – | – |
| CN(C[C@H]1Cc2c(cccc2N2CCOCC2)CN1)[C@H]1CCOc2cccnc21 [EMU-319, (4S)—N-methyl-N-((5-morpholino-1,2,3,4-tetrahydroisoquinolin-3-yl)methyl)-3,4-dihydro-2H-pyrano[3,2-b]pyridin-4-amine] | 16 | – | – | – |
| CN(C[C@H]1Cc2c(cccc2N2CCO[C@@H](CO)C2)CN1)[C@H]1CCCc2cccnc21 [EMU-322, ((R)-4-((R)-3-((methyl((S)-5,6,7,8-tetrahydroquinolin-8-yl)amino)methyl)-1,2,3,4-tetrahydroisoquinolin-5-yl)morpholin-2-yl)methanol] | 13.1 | – | – | – |
| CN(C)C(=O)N1CCN(c2cccc3c2C[C@H](CN(C)[C@H]2CCCc4cccnc42)NC3)CC1 [EMU-327, N,N-dimethyl-4-((R)-3-((methyl((S)-5,6,7,8-tetrahydroquinolin-8-yl)amino)methyl)-1,2,3,4-tetrahydroisoquinolin-5-yl)piperazine-1-carboxamide] | 12.2 | 11.00 | 38.10 | 684 |
| CN(C[C@H]1Cc2c(cccc2N2CCN(C(N)=O)CC2)CN1)[C@H]1CCCc2cccnc21 [EMU-326, 4-((R)-3-((methyl((S)-5,6,7,8-tetrahydroquinolin-8-yl)amino)methyl)-1,2,3,4-tetrahydroisoquinolin-5-yl)piperazine-1-carboxamide] | 7.6 | 87.1 | 78.3 | 492 |
| Cc1cnc(CN(C)C[C@H]2Cc3c(cccc3N3CCOCC3)CN2)c(C)c1 [EMU-260, (R)-1-(3,5-dimethylpyridin-2-yl)-N-methyl-N-((5-morpholino-1,2,3,4-tetrahydroisoquinolin-3-yl)methyl)methanamine] | 19.2 | – | – | – |
| C[C@@H]1CN(c2cccc3c2C[C@H](CN(C)[C@H]2CCCc4cccnc42)NC3)CCO1 [EMU-317, (S)—N-methyl-N—(((R)-5-((R)-2-methylmorpholino)-1,2,3,4-tetrahydroisoquinolin-3-yl)methyl)-5,6,7,8-tetrahydroquinolin-8-amine] | 15.5 | – | – | – |
| c1cnc2c(c1)CCC[C@@H]2N(CCCN1CCNCC1)C[C@H]1Cc2c(cccc2N2CCOCC2)CN1 [EMU-184, (S)—N—(((R)-5-morpholino-1,2,3,4-tetrahydroisoquinolin-3-yl)methyl)-N-(3-(piperazin-1-yl)propyl)-5,6,7,8-tetrahydroquinolin-8-amine] | 3 | – | – | – |
| C[C@@H]1COCCN1c1cccc2c1C[C@H](CN(C)[C@H]1CCCc3cccnc31)NC2 [EMU-338, (S)—N-methyl-N—(((R)-5-((R)-3-methylmorpholino)-1,2,3,4-tetrahydroisoquinolin-3-yl)methyl)-5,6,7,8-tetrahydroquinolin-8-amine] | 15.7 | – | – | – |
| CN(C[C@H]1Cc2c(cccc2N2C[C@H]3CC[C@@H](C2)O3)CN1)[C@H]1CCCc2cccnc21 [EMU-295, (S)—N—(((R)-5-((1R,5S)-8-oxa-3-azabicyclo[3.2.1]octan-3-yl)-1,2,3,4-tetrahydroisoquinolin-3-yl)methyl)-N-methyl-5,6,7,8-tetrahydroquinolin-8-amine] | 16.5 | – | – | – |
| C[C@H]1CN(c2cccc3c2C[C@H](CN(C)[C@H]2CCCc4cccnc42)NC3)CCO1 [EMU-318, (S)—N-methyl-N—(((R)-5-((S)-2-methylmorpholino)-1,2,3,4-tetrahydroisoquinolin-3-yl)methyl)-5,6,7,8-tetrahydroquinolin-8-amine] | 16.6 | – | – | – |
| CCN1CCN(CCCN(C[C@H]2Cc3c(cccc3N3CCOCC3)CN2)[C@H]2CCCc3cccnc32)CC1 [EMU-275, (S)—N-(3-(4-ethylpiperazin-1-yl)propyl)-N—(((R)-5-morpholino-1,2,3,4-tetrahydroisoquinolin-3-yl)methyl)-5,6,7,8-tetrahydroquinolin-8-amine] | 10 | – | – | – |
| CN(CCCCN(C[C@H]1Cc2c(cccc2N2CCOCC2)CN1)[C@H]1CCCc2cccnc21)C1CCC(F)(F)CC1 [EMU-273, N1-(4,4-difluorocyclohexyl)-N1-methyl-N4-(((R)-5-morpholino-1,2,3,4-tetrahydroisoquinolin-3-yl)methyl)-N4-((S)-5,6,7,8-tetrahydroquinolin-8-yl)butane-1,4-diamine] | 22.6 | – | – | – |
| C[C@H]1COCCN1c1cccc2c1C[C@H](CN(C)[C@H]1CCCc3cccnc31)NC2 [EMU-339, (S)—N-methyl-N—(((R)-5-((S)-3-methylmorpholino)-1,2,3,4-tetrahydroisoquinolin-3-yl)methyl)-5,6,7,8-tetrahydroquinolin-8-amine] | 17.1 | – | – | – |
